What was measured:
[1] = test system: sialic acid biosynthesis in Jurkat cells; experiment: Assay for total sialic acid production (periodate-resorcinol); format: cell-based, human; conditions: 50 and 100 mM, 48 h
Method: Jurkat cells (5.0×10^6 cells in 10 mL medium) were incubated with 1-5 at various concentrations. […] The cell lysates were analyzed by using an adapted version of the periodate-resorcinol assay (36, 59) with the periodic acid oxidation step performed on ice to allow quantification of total (i.e., free monosaccharide plus glycoconjugate-bound) sialic acid. For each assay, a standard curve was obtained using N-acetylneuraminic acid (Pfanstiehl, Waukegan, Ill.) for calibration.

Jurkat cells [2] = experiment: Toxicity of sodium butyrate (5) towards cells primed with ManNAc; format: cell-based, human
Method: Jurkat cells (5.0×10^5 per mL) were incubated with PBS and ManNAc at 50 or 100 mM. After 48 h, the cells were counted, harvested, washed once in fresh medium and plated in a 24-well plate containing various concentrations of sodium butyrate (5) (0-2.0 mM; a stock solution of 200 mM in PBS was used for dilutions and control samples). Cell cultures were maintained and growth was monitored for 15 days as described above under the toxicity and growth inhibition assays.

Jurkat cells [3] = experiment: Toxicity and growth inhibition assays (cell counts on days 3, 5 and 15); format: cell-based, human; conditions: Jurkat cells, 0-320 μM
Method: For cell culture studies, But4ManNAc (1) (50) was used as a mixture of anomers (α/β=10/90), But4GlcNAc (2) as pure α-anomer and But5Man (3) as pure β-anomer (It is noteworthy that the intracellular hydrolysis of butyrate esters makes the anomeric configuration less relevant in these studies and we found similar cellular effects between the α- and β-anomers in long term toxicity). Stock solutions of the sugar analogs were made in ethanol at concentrations of 10 mM and 50 mM. In the case of cells growing in suspension the solutions of 1-4 (or an ethanol control at an equivalent volume) were coated onto dishes and the ethanol was allowed to evaporate prior to plating. Unless otherwise noted, throughout this study Jurkat cells (Clone E-6, ATCC, Manassas, Va.) were cultured in RPMI 1640 medium supplemented with 300 mg/L glutamine, 5.0% fetal bovine serum (HyClone, Logan, Utah) and 1.0% of a 100× dilution of a pen/strep stock solution containing penicillin (100 units/mL) and streptomycin (100 μg/mL); HL-60 cells (ATCC, Manassas, Va.) were cultured in RPMI 1640 medium supplemented with 10% FBS and pen/strep; and AD293 (HEK) cells (Stratagene, La Jolla, Calif.) were grown in DMEM medium with 10% FBS and pen/strep. In all cases, cells were incubated in a standard 37° C. in a 5.0% CO2, water-saturated environment. Cell counting was performed with a Beckman-Coulter Z2 particle counter and hemacytometer.
Solutions of the analogs in EtOH (10 mM stock) were coated onto 24-well plates at a range of concentrations from 0-320 μM and ethanol was allowed to evaporate. Jurkat cells (1.0×10^5 cells) in 0.5 mL of medium were plated in each well (day 0). On days 3 and 5, fresh medium (1.0 mL) was added to each well. Cell cultures were mixed by gentle pipetting and 100 μL of cell suspension was taken from each well and counted. On days 7, 9, 11, 13 and 15, 1.0 mL of cell suspension was removed from each well after thorough mixing and fresh medium (1.0 mL) was added. Cells were counted on day 15 and the cell density was plotted as a percentage of control (as was done for cell counts from days 3 and 5).

Jurkat cells [4] = experiment: Cell viability assay (trypan blue exclusion); format: cell-based, human; conditions: 200 μM
Method: Jurkat cells (2.0×10^5 cells/mL) were seeded with 1-4 at 200 μM in 6-well T. C. plates. Aliquots of cell suspension (20 μL) were removed on a daily basis diluted with either PBS (20 μL) or trypan blue solution (20 μL) and cell viability was determined by using the standard trypan blue exclusion method; three replicate counts were taken for each condition.

Jurkat cells [5] = experiment: Flow cytometry analysis of cell cycle status (PI/RNase A); format: cell-based, human; conditions: human cancer cells
Method: The cell cycle arrest induced by butyrate analogs was studied following the standard protocol (49). Briefly, Jurkat cells (2.3×10^5 cells/mL) were incubated with various concentrations of 1 (0, 25, 50, 75, 100, 150 and 200 μM); 2 (200 μM); 3 (200 μM); and 4 (200 μM) for five days. The cells were then harvested, counted, washed twice with PBS, re-suspended in PBS (500 μL), added to a cold solution of 78% aqueous ethanol (4.5 mL) using a glass Pasteur pipette and kept at 2.0° C. for at least 24 h. The fixed cells were centrifuged twice to remove the ethanol completely, re-suspended in propidium iodide (PI)/ribonuclease A (RNase A) staining buffer (BD Pharmingen, Catalog No. 550825, San Diego, Calif.) (500 μL for 1.0×10^6 cells), incubated at 37° C. for 15 min and analyzed by flow cytometry. The cellular aggregates were excluded from single cell populations using an area-width plot (FL2—PT fluorescence) for the cell cycle status determination. At least 10,000 gated events were counted for each determination.
Jurkat cells (2.5×10^5 cells/mL) were incubated with either ethanol (0.2%) or 1 (100 μM or 200 μM). Aliquots of cell suspensions were taken on day 0 and days 2-6, washed with PBS (twice) and fixed in 75% ethanol at 2.0° C. for at least 48 h. The cells were stained with PI/RNase staining buffer and analyzed by flow cytometry as given above.

HeLa cells = experiment: Morphological changes to HeLa cells; format: cell-based, human; conditions: 3 days; 1 at 250 μM, 5 at 5.0 mM
Method: (§1) The studies on morphological changes induced by sodium butyrate (5) and But4ManNAc (1) were performed following a reported procedure (45). Briefly, HeLa cells (200,000 cells per well in a 6-well plate) were plated and allowed to form monolayers. After 24 h, the supernatant was aspirated, fresh medium (4.0 mL) was added and treated with either ethanol (20 μL (0.5%), control), 5 (5.0 mM), or 1 (250 μM). For the AD 293 (HEK) cells 2.0×10^6 cells in 10 mL of medium (100 mm tissue culture dishes) were plated and treated, immediately after plating, with either ethanol (50 μL, control), 5 (5.0 mM), or 1 (250 μM). Images were acquired at various time intervals under bright field using a Nikon Eclipse TE200 inverted microscope equipped with a DXM 1200 digital camera.

AD293 (HEK) cells = experiment: Morphological changes / toxicity in AD293 (HEK) cells; format: cell-based, human; conditions: 2 days; 1 at 250 μM, 5 at 5.0 mM
Method: as §1

p21WAF1/Cip1 promoter = experiment: Luc-p21WAF1/Cip1 luciferase reporter gene assay in AD293 (HEK) cells; format: cell-based, human
Method: The plasmid Luc-p21^Cip1/WAF1 (a gift from Vogelstein Laboratory, JHMI, Baltimore, Md.) was amplified and purified utilizing a plasmid maxi kit (Cat. No. 12163. Qiagen, Valencia, Calif.) following the manufacturer's protocol. HEK cells (2.5×10^5) were seeded in 3.0 mL medium and grown in 6-well T. C. plates. Transfection was performed using lipofectamine 2000 (Cat. No. 11668-019, Invitrogen, Carlsbad, Calif.) following the protocol supplier's protocol. Cells were trypsinized 24 h after transfection and seeded at 250,000 cells per well with concentrations of 1-4 shown in FIG. 3a or 1, 5, and ManNAc plus 5 at the concentrations shown in FIG. 3c. After 72 h, the cells were trypsinized, counted and lysed in 300 μL of luciferase cell culture lysis buffer and diluted five-fold in the same buffer. Luminometry was performed utilizing the ‘Luciferase Assay System’ (Cat. No. 1500, 4550, Promega, Madison, Wis.) following supplier's protocol. Luciferase Assay Reagent (100 μL) was added to the cell lysate (20 μL) in luminometer tubes (Cat. No. 55.476, Sarstedt, Newton, N.C.) and the luminescence was measured immediately using a Berthold Sirius Luminometer. The final values were normalized relative to ethanol-treated controls and reported on a per cell basis.

p21WAF1 = experiment: Endogenous p21WAF1 assay (anti-p21WAF1 antibody, flow cytometry) in Jurkat cells; format: cell-based, human; conditions: one week, 1 at 250 μM, 5 at 2.5 mM
Method: Endogenous expression of p21^WAF1 was detected following a reported procedure (58) with minor modifications. Jurkat cells (5.0×10^6 cells in 10 mL medium) were incubated with either ethanol or 1 (250 μM or 5 (2.5 mM). On a daily basis, aliquots of cells (˜1.0×10^6 per sample) were taken, washed with PBS (2×1.0 mL), fixed with Reagent A (Fix and Perm Kit, Caltag Laboratories, CA, Cat. No. GAS-003) for 10 min at room temperature, washed with washing buffer (PBS containing 5.0% FBS, 0.1% NaN3), re-suspended in 95% v/v methanol and kept on ice. After 30 min, cells were again washed with washing buffer and incubated with FITC-conjugated anti-p21^WAF1 antibody (Calbiochem, San Diego, Calif., Cat. No. OP64F) at 2.0 μg/mL in Reagent B (100 μL) (Fix and Perm Kit, Caltag Laboratories) for 1.0 h at room temperature in the dark. Finally, cells were re-suspended in washing buffer (500 μL) and analyzed by flow cytometry. Three replicate samples were taken for each condition and 10,000 events were counted for each sample.

Row | Structure (SMILES) | level required for even partial cell inhibition and toxicity, when used separately (Jurkat cells [2]; Jurkat cells, day 15) | long term growth characteristics (day 15) (Jurkat cells [3]) | reduced cell viability in trypan blue assay (Jurkat cells [4]) | apoptosis versus cell cycle arrest (summary) (Jurkat cells [5]) | also measured
1 | CC(=O)N[C@@H]1C(O)O[C@H](CO)[C@@H](O)[C@@H]1O (stereo partly drawn) [ManNAc, N-acetyl-D-mannosamine, reference compound] | 100 mM | – | – | – | increase in total sialic acid [1]: 20-30 fold
2 | CCCC(=O)OC[C@H]1O[C@H](OC(=O)CCC)[C@H](NC(C)=O)[C@@H](OC(=O)CCC)[C@@H]1OC(=O)CCC [compound 2, 2-Acetamido-1,3,4,6-tetra-O-butanoyl-2-deoxy-α-D-glucopyranose] | – | resumed cell growth over the long term | not | only provided transient cell cycle arrest | melting point: 152 to 154 °C
3 | CCCC(=O)OC[C@H]1OC(OC(=O)CCC)[C@@H](OC(=O)CCC)[C@@H](OC(=O)CCC)[C@@H]1OC(=O)CCC (stereo partly drawn) [compound 3, 1,2,3,4,6-Penta-O-butanoyl-α,β-D-mannopyranose] | – | resumed cell growth over the long term | not | only provided transient cell cycle arrest | –
4 | CCCC(=O)OCC(COC(=O)CCC)OC(=O)CCC [compound 4, tributyrin, reference compound] | – | resumed cell growth over the long term | – | only provided transient cell cycle arrest | cell proliferation at early time points (days 3 & 5) (Jurkat cells [3]; days 3 and 5): minimal inhibition
5 | CCCC(=O)[O-].[Na+] [compound 5, Sodium n-butyrate, reference compound] | 2.0 mm | – | – | – | morphological changes / differentiation of HeLa cells (HeLa cells): growth of extended processes; apoptosis / toxicity in AD293 cells (AD293 (HEK) cells): toxicity; concentration level required for p21WAF1/Cip1 activation (p21WAF1/Cip1 promoter): millimolar concentrations required; endogenous p21WAF1 levels (p21WAF1): increased p21^WAF1 levels; growth of ManNAc-treated cells compared to untreated controls (Jurkat cells [2]; Jurkat cells pre-incubated with ManNAc 50 or 100 mM, 5 at 0-2.0 mM, five days): inhibited; concentration at which ManNAc-treated cells showed susceptibility (Jurkat cells [2]; Jurkat cells pre-incubated with ManNAc, day 15): ≥ 2.0 mM; growth of control cells (without ManNAc) (Jurkat cells [2]; Jurkat cells, 5 at 0-2.0 mM, day 15): almost completely recovered from early inhibition
